Test results reported in patent publication US20160237502A1, “MARKERS FOR LIPID METABOLISM” (priority 2014, published 2016).
“Also recorded” adds a separate entry of the source.

Columns and labels:
alh-6 mutant worms = experiment: Fat content during fasting measured by Nile Red staining; type: in vivo, C. elegans; details: NAC-treated alh-6 mutant worms
Procedure: For starvation, synchronized L1 animals were added to nematode growth medium (NGM) plates seeded with indicated bacteria. After 2 days at 20° C., L4 animals were collected, washed with M9 buffer at least three times and then subjected to fasting in M9 liquid with shaking for indicated time before collection for further analysis. Starvation survival assay was performed as previous described (Artyukhin et al., Sci. Rep.; 3, 2777; 2013). […] After 24 h, synchronized L1 animals were resuspended in M9 at a concentration of two worms per microliter. Starvation culture was mixed by constant rocking. Every 2 days, a portion of animals was recovered on normal OP50-seeded NGM plates. Animals that resumed development were considered to be surviving.
Nile Red staining was performed as previously described (Pino, et al., J. Vis. Exp. 73; 2013). Briefly, animals of indicated genotypes were collected, fixed in 40% isopropanol at room temperature for 3 min and stained in 3 μg ml-1 Nile Red working solution in dark for 2 h. Worms were then washed with M9 for at least 30 min, mounted on slides and imaged under the green fluorescent protein channel of microscope Zeiss Axio Imager with Zen software package. Fluorescent density was measured using ImageJ software. Approximately ten animals from each experiment (n) were used to calculate the fluorescent density.

alh-6 mutants = details: NAC treatment, previous study; cited from earlier work
SKN-1 = SKN-1 transcriptional activity reporter gst-4p::GFP activation in worms; type: in vivo, C. elegans

| Compound | fat mobilization in response to fasting (alh-6 mutant worms) | shortened lifespan of alh-6 mutants (alh-6 mutants) | SKN-1 reporter activation induced by exposure to arsenite (SKN-1; gst-4p::GFP reporter, arsenite as inducer of oxidative stress, NAC treatment) | SKN-1 activation observed in fasted alh-6 mutants (SKN-1; gst-4p::GFP reporter, fasted alh-6 mutants, NAC treatment) | SKN-1 reporter activation (SKN-1; in vivo) |
| --- | --- | --- | --- | --- | --- |
| CC(=O)N[C@@H](CS)C(=O)O [NAC, N-acetylcysteine] | still exhibited accelerated fat mobilization | completely abrogated the shortened lifespan | blocked the SKN-1 reporter activation; also recorded: inhibits arsenite (AS) induced SKN-1 reporter activation | no effect; also recorded: not activation when alh-6 mutants are fasted |  |
| arsenite |  |  |  |  | SKN-1 reporter activation induced |
